Source: PubChem BioAssay AID1919009 (Molecular Pharmacology Branch, DTP, NCI, 2023)

Tested on: K24384-001-R-PDC complex spheroid growth
Test: Anticancer human tumor K24384-001-R-PDC patient-derived pancreatic adenocarcinoma cell line growth inhibition [AhR]
Conditions: for IC50: curve of first compound; for viability, T/C: stronger effect = lower value
Method in brief: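 Agents were dosed in half-log steps down from roughly clinical Cmax, or from 10 microM where Cmax was unknown, alone and with AhR antagonists. Read-out: percent test/control growth of tumor spheroids containing HUVEC and MSC stromal cells.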
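For viability, T/C in this document: percent of DMSO vehicle-treated spheroid viability set as 100%.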

**Q.** What does the source list for CC1(C)CCC(CN2CCN(c3ccc(C(=O)NS(=O)(=O)c4ccc(NCC5CCOCC5)c([N+](=O)[O-])c4)c(Oc4cnc5[nH]ccc5c4)c3)CC2)=C(c2ccc(Cl)cc2)C1 + Cc1ccccc1N=Nc1ccc(NC(=O)c2ccnn2C)c(C)c1?
**A.** IC50 (second compound 0.1 µM): > 10 µM; IC50 (second compound 0.316 µM): > 10 µM; IC50 (second compound 1 µM): 9.66 µM; IC50 (second compound 3.16 µM): 9.75 µM; IC50 (second compound 10 µM): > 10 µM; viability, T/C (second compound 0.1 µM, first compound 0.0316 µM): 111%; viability, T/C (second compound 0.1 µM, first compound 0.1 µM): 119%; viability, T/C (second compound 0.1 µM, first compound 0.316 µM): 113%; viability, T/C (second compound 0.1 µM, first compound 1 µM): 102%; viability, T/C (second compound 0.1 µM, first compound 3.16 µM): 86.5%; viability, T/C (second compound 0.1 µM, first compound 10 µM): 52.3%; viability, T/C (second compound 0.316 µM, first compound 0.0316 µM): 123%; viability, T/C (second compound 0.316 µM, first compound 0.1 µM): 112%; viability, T/C (second compound 0.316 µM, first compound 0.316 µM): 132%; viability, T/C (second compound 0.316 µM, first compound 1 µM): 114%; viability, T/C (second compound 0.316 µM, first compound 3.16 µM): 118%; viability, T/C (second compound 0.316 µM, first compound 10 µM): 51.7%; viability, T/C (second compound 1 µM, first compound 0.0316 µM): 108%; viability, T/C (second compound 1 µM, first compound 0.1 µM): 102%; viability, T/C (second compound 1 µM, first compound 0.316 µM): 122%; viability, T/C (second compound 1 µM, first compound 1 µM): 112%; viability, T/C (second compound 1 µM, first compound 3.16 µM): 114%; viability, T/C (second compound 1 µM, first compound 10 µM): 48.1%; viability, T/C (second compound 3.16 µM, first compound 0.0316 µM): 111%; viability, T/C (second compound 3.16 µM, first compound 0.1 µM): 107%; viability, T/C (second compound 3.16 µM, first compound 0.316 µM): 114%; viability, T/C (second compound 3.16 µM, first compound 1 µM): 112%; viability, T/C (second compound 3.16 µM, first compound 3.16 µM): 112%; viability, T/C (second compound 3.16 µM, first compound 10 µM): 48.5%; viability, T/C (second compound 10 µM, first compound 0.0316 µM): 116%; viability, T/C (second compound 10 µM, first compound 0.1 µM): 147%; viability, T/C (second compound 10 µM, first compound 0.316 µM): 131%; viability, T/C (second compound 10 µM, first compound 1 µM): 129%; viability, T/C (second compound 10 µM, first compound 3.16 µM): 111%; viability, T/C (second compound 10 µM, first compound 10 µM): 57.8%

**Q.** What does the source list for CCN(c1cc(-c2ccc(CN3CCOCC3)cc2)cc(C(=O)NCc2c(C)cc(C)[nH]c2=O)c1C)C1CCOCC1 + Cc1ccccc1N=Nc1ccc(NC(=O)c2ccnn2C)c(C)c1?
**A.** IC50 (second compound 0.1 µM): > 3 µM; IC50 (second compound 0.316 µM): > 3 µM; IC50 (second compound 1 µM): > 3 µM; IC50 (second compound 3.16 µM): > 3 µM; IC50 (second compound 10 µM): > 3 µM; viability, T/C (second compound 0.1 µM, first compound 0.00949 µM): 116%; viability, T/C (second compound 0.1 µM, first compound 0.03 µM): 114%; viability, T/C (second compound 0.1 µM, first compound 0.0949 µM): 124%; viability, T/C (second compound 0.1 µM, first compound 0.3 µM): 113%; viability, T/C (second compound 0.1 µM, first compound 0.949 µM): 80%; viability, T/C (second compound 0.1 µM, first compound 3 µM): 125%; viability, T/C (second compound 0.316 µM, first compound 0.00949 µM): 131%; viability, T/C (second compound 0.316 µM, first compound 0.03 µM): 126%; viability, T/C (second compound 0.316 µM, first compound 0.0949 µM): 135%; viability, T/C (second compound 0.316 µM, first compound 0.3 µM): 112%; viability, T/C (second compound 0.316 µM, first compound 0.949 µM): 106%; viability, T/C (second compound 0.316 µM, first compound 3 µM): 91.2%; viability, T/C (second compound 1 µM, first compound 0.00949 µM): 119%; viability, T/C (second compound 1 µM, first compound 0.03 µM): 134%; viability, T/C (second compound 1 µM, first compound 0.0949 µM): 131%; viability, T/C (second compound 1 µM, first compound 0.3 µM): 106%; viability, T/C (second compound 1 µM, first compound 0.949 µM): 87.3%; viability, T/C (second compound 1 µM, first compound 3 µM): 87.8%; viability, T/C (second compound 3.16 µM, first compound 0.00949 µM): 109%; viability, T/C (second compound 3.16 µM, first compound 0.03 µM): 117%; viability, T/C (second compound 3.16 µM, first compound 0.0949 µM): 116%; viability, T/C (second compound 3.16 µM, first compound 0.3 µM): 107%; viability, T/C (second compound 3.16 µM, first compound 0.949 µM): 130%; viability, T/C (second compound 3.16 µM, first compound 3 µM): 105%; viability, T/C (second compound 10 µM, first compound 0.00949 µM): 141%; viability, T/C (second compound 10 µM, first compound 0.03 µM): 138%; viability, T/C (second compound 10 µM, first compound 0.0949 µM): 147%; viability, T/C (second compound 10 µM, first compound 0.3 µM): 137%; viability, T/C (second compound 10 µM, first compound 0.949 µM): 128%; viability, T/C (second compound 10 µM, first compound 3 µM): 110%
